Data from patent US20110039721A1, “METHOD FOR PREDICTION ABOUT CARCINOGENICITY OF SUBSTANCE IN RODENT” (Chemicals Evaluation and Research Institute, priority 2007, published 2011).

System: mRNA expressed from the genes (A) to (D) in rat liver
Test: Behavior of genes (mRNA expression level, oligo-DNA microarray) in rat liver after 28-day oral administration
Assay type: in vivo
Conditions: for Behavior of gene caused by administration of chemical substance, Gene No. 4846 / Behavior of gene caused by administration of chemical substance, Gene No. 2026 / Behavior of gene caused by administration of chemical substance, Gene No. 4218 / Behavior of gene caused by administration of chemical substance, Gene No. 6182 / Behavior of gene caused by administration of chemical substance, Gene No. 5600: gene group (A); for Behavior of gene caused by administration of chemical substance, Gene No. 4846: Unigene No. Rn.144554; for Behavior of gene caused by administration of chemical substance, Gene No. 2026 / Behavior of gene caused by administration of chemical substance, Gene No. 4218: Unigene No. Rn.167075; for Behavior of gene caused by administration of chemical substance, Gene No. 6182: Unigene No. Rn.5834; for Behavior of gene caused by administration of chemical substance, Gene No. 5600: Unigene No. Rn.9836; for Behavior of gene caused by administration of chemical substance, Gene No. 1494 / Behavior of gene caused by administration of chemical substance, Gene No. 2045 / Behavior of gene caused by administration of chemical substance, Gene No. 2203: gene group (B); for Behavior of gene caused by administration of chemical substance, Gene No. 1494: Unigene No. Rn.1430; for Behavior of gene caused by administration of chemical substance, Gene No. 2045: Unigene No. Rn.19329; for Behavior of gene caused by administration of chemical substance, Gene No. 2203: Unigene No. Rn.21240; for Behavior of gene caused by administration of chemical substance, Gene No. 533 / Behavior of gene caused by administration of chemical substance, Gene No. 725 / Behavior of gene caused by administration of chemical substance, Gene No. 1163 / Behavior of gene caused by administration of chemical substance, Gene No. 4973 / Behavior of gene caused by administration of chemical substance, Gene No. 4095 / Behavior of gene caused by administration of chemical substance, Gene No. 1334 / Behavior of gene caused by administration of chemical substance, Gene No. 6620 / Behavior of gene caused by administration of chemical substance, Gene No. 6303 / Behavior of gene caused by administration of chemical substance, Gene No. 5878 / Behavior of gene caused by administration of chemical substance, Gene No. 1131 / Behavior of gene caused by administration of chemical substance, Gene No. 1562 / Behavior of gene caused by administration of chemical substance, Gene No. 1741 / Behavior of gene caused by administration of chemical substance, Gene No. 893 / Behavior of gene caused by administration of chemical substance, Gene No. 6026 / Behavior of gene caused by administration of chemical substance, Gene No. 154 / Behavior of gene caused by administration of chemical substance, Gene No. 1993 / Behavior of gene caused by administration of chemical substance, Gene No. 813 / Behavior of gene caused by administration of chemical substance, Gene No. 2494 / Behavior of gene caused by administration of chemical substance, Gene No. 2546 / Behavior of gene caused by administration of chemical substance, Gene No. 3776 / Behavior of gene caused by administration of chemical substance, Gene No. 3929 / Behavior of gene caused by administration of chemical substance, Gene No. 1119 / Behavior of gene caused by administration of chemical substance, Gene No. 6742 / Behavior of gene caused by administration of chemical substance, Gene No. 5634: gene group (C); for Behavior of gene caused by administration of chemical substance, Gene No. 533: Unigene No. Rn.106184; for Behavior of gene caused by administration of chemical substance, Gene No. 725: Unigene No. Rn.108075; for Behavior of gene caused by administration of chemical substance, Gene No. 1163: Unigene No. Rn.11766; for Behavior of gene caused by administration of chemical substance, Gene No. 4973: Unigene No. Rn.118529; for Behavior of gene caused by administration of chemical substance, Gene No. 4095: Unigene No. Rn.119024; for Behavior of gene caused by administration of chemical substance, Gene No. 1334 / Behavior of gene caused by administration of chemical substance, Gene No. 6620: Unigene No. Rn.120914; for Behavior of gene caused by administration of chemical substance, Gene No. 6303: Unigene No. Rn.123063; for Behavior of gene caused by administration of chemical substance, Gene No. 5878: Unigene No. Rn.143213; for Behavior of gene caused by administration of chemical substance, Gene No. 1131: Unigene No. Rn.144946; for Behavior of gene caused by administration of chemical substance, Gene No. 1562: Unigene No. Rn.14744; for Behavior of gene caused by administration of chemical substance, Gene No. 1741: Unigene No. Rn.1647; for Behavior of gene caused by administration of chemical substance, Gene No. 893: Unigene No. Rn.164817; for Behavior of gene caused by administration of chemical substance, Gene No. 6026: Unigene No. Rn.167685; for Behavior of gene caused by administration of chemical substance, Gene No. 154: Unigene No. Rn.185941; for Behavior of gene caused by administration of chemical substance, Gene No. 1993: Unigene No. Rn.18728; for Behavior of gene caused by administration of chemical substance, Gene No. 813: Unigene No. Rn.201760; for Behavior of gene caused by administration of chemical substance, Gene No. 2494: Unigene No. Rn.23969; for Behavior of gene caused by administration of chemical substance, Gene No. 2546: Unigene No. Rn.24561; for Behavior of gene caused by administration of chemical substance, Gene No. 3776: Unigene No. Rn.43232; for Behavior of gene caused by administration of chemical substance, Gene No. 3929: Unigene No. Rn.4620; for Behavior of gene caused by administration of chemical substance, Gene No. 1119: Unigene No. Rn.9757; for Behavior of gene caused by administration of chemical substance, Gene No. 6742: Unigene No. Rn.9779; for Behavior of gene caused by administration of chemical substance, Gene No. 5634: Unigene No. Rn.9862; for Behavior of gene caused by administration of chemical substance, Gene No. 5726: gene group (D), Unigene No. Rn.9939
Procedure: A test solution was prepared by dissolving each of the carcinogens and the non-carcinogens shown in Tables 2 to 6 in the corresponding solvent shown in Tables 2 to 6. Each of the thus prepared test solutions and the solvents used for the preparation was administered by oral gavage to rats in each group. As the rats, male rats (F344 SPF rats) at 5 weeks of age obtained from Charles River Laboratories Japan, Inc. were used. The animals were divided into groups, each containing four individuals. The volume of the solvent administered to the vehicle control group was set to the same volume as that of the test solution administered to the carcinogen administration group or the non-carcinogen administration group. The administration of the test solution or the solvent was performed once daily for 28 days. Apiece was excised from the liver of each of the rats after a lapse of 28 days from the initiation of the administration, and the total RNA was extracted and purified.
The expression level of mRNA was compared between each of the chemical substance administration groups and the corresponding vehicle control group, and genes that satisfy the requirements described in (A) to (D) were selected, respectively.
The case where the expression level of mRNA in the carcinogen administration group or the non-carcinogen administration group is 1.5 times or more or 1/1.5 or less of the expression level of the corresponding mRNA expressed in the control group was determined to be significant. In this connection, the determination as to whether or not the change is significant was performed by taking into consideration the direction of increase or decrease in the expression level. In the case where the direction of increase or decrease is different as compared with the case where another carcinogen was administered, the change was determined to be not significant.

SMILES | Behavior of gene caused by administration of chemical substance, Gene No. 4846 | Behavior of gene caused by administration of chemical substance, Gene No. 2026 | Behavior of gene caused by administration of chemical substance, Gene No. 4218 | Behavior of gene caused by administration of chemical substance, Gene No. 6182 | Behavior of gene caused by administration of chemical substance, Gene No. 5600 | Behavior of gene caused by administration of chemical substance, Gene No. 1494 | Behavior of gene caused by administration of chemical substance, Gene No. 2045 | Behavior of gene caused by administration of chemical substance, Gene No. 2203 | Behavior of gene caused by administration of chemical substance, Gene No. 533 | Behavior of gene caused by administration of chemical substance, Gene No. 725 | Behavior of gene caused by administration of chemical substance, Gene No. 1163 | Behavior of gene caused by administration of chemical substance, Gene No. 4973 | Behavior of gene caused by administration of chemical substance, Gene No. 4095 | Behavior of gene caused by administration of chemical substance, Gene No. 1334 | Behavior of gene caused by administration of chemical substance, Gene No. 6620 | Behavior of gene caused by administration of chemical substance, Gene No. 6303 | Behavior of gene caused by administration of chemical substance, Gene No. 5878 | Behavior of gene caused by administration of chemical substance, Gene No. 1131 | Behavior of gene caused by administration of chemical substance, Gene No. 1562 | Behavior of gene caused by administration of chemical substance, Gene No. 1741 | further results
CC(=O)Nc1ccc(O)cc1 [TS031, Acetaminophen] | − | + | − | − | − | + | − | − | + | − | − | − | − | − | − | − | − | − | − | + | Behavior of gene caused by administration of chemical substance, Gene No. 893: −; Behavior of gene caused by administration of chemical substance, Gene No. 6026: −; Behavior of gene caused by administration of chemical substance, Gene No. 154: −; Behavior of gene caused by administration of chemical substance, Gene No. 1993: −; Behavior of gene caused by administration of chemical substance, Gene No. 813: −; Behavior of gene caused by administration of chemical substance, Gene No. 2494: −; Behavior of gene caused by administration of chemical substance, Gene No. 2546: +; Behavior of gene caused by administration of chemical substance, Gene No. 3776: −; Behavior of gene caused by administration of chemical substance, Gene No. 3929: −; Behavior of gene caused by administration of chemical substance, Gene No. 1119: −; Behavior of gene caused by administration of chemical substance, Gene No. 6742: +; Behavior of gene caused by administration of chemical substance, Gene No. 5634: −; Behavior of gene caused by administration of chemical substance, Gene No. 5726: −
C[C@H](CCC(=O)O)[C@H]1CC[C@H]2[C@@H]3CC[C@@H]4C[C@H](O)CC[C@]4(C)[C@H]3CC[C@]12C [TS040, Lithocholic acid] | − | − | − | − | − | − | − | − | − | − | − | − | − | − | − | − | − | − | − | − | Behavior of gene caused by administration of chemical substance, Gene No. 893: −; Behavior of gene caused by administration of chemical substance, Gene No. 6026: −; Behavior of gene caused by administration of chemical substance, Gene No. 154: −; Behavior of gene caused by administration of chemical substance, Gene No. 1993: −; Behavior of gene caused by administration of chemical substance, Gene No. 813: −; Behavior of gene caused by administration of chemical substance, Gene No. 2494: −; Behavior of gene caused by administration of chemical substance, Gene No. 2546: −; Behavior of gene caused by administration of chemical substance, Gene No. 3776: −; Behavior of gene caused by administration of chemical substance, Gene No. 3929: −; Behavior of gene caused by administration of chemical substance, Gene No. 1119: −; Behavior of gene caused by administration of chemical substance, Gene No. 6742: +; Behavior of gene caused by administration of chemical substance, Gene No. 5634: −; Behavior of gene caused by administration of chemical substance, Gene No. 5726: −
